Results published in the NIST ThermoML archive (doi:10.1016/j.jct.2016.03.029).

Assay: xn = mol fraction of the nth substance listed
Conditions: 100 kPa, Liquid; for speed of sound: Frequency=3 MHz, Sing-around technique in a fixed-path interferometer; for mass density: Vibrating tube method

CCCC[n+]1ccn(C)c1.O=S(=O)([N-]S(=O)(=O)C(F)(F)F)C(F)(F)F + CN1CCCC1=O
Conditions | mass density, 298.15 K [kg/m3] | mass density, 303.15 K [kg/m3] | mass density, 308.15 K [kg/m3] | mass density, 313.15 K [kg/m3] | speed of sound, 298.15 K [m/s] | speed of sound, 303.15 K [m/s] | speed of sound, 308.15 K [m/s] | speed of sound, 313.15 K [m/s] | speed of sound, 318.15 K [m/s]
x1 = 0.1051 | 1135.14 | 1130.6 | 1126.04 | 1121.51 | 1448.1 | 1430.8 | 1413.4 | 1396.4 | 1379.1
x1 = 0.2088 | 1209.84 | 1205.24 | 1200.63 | 1196.02 | 1385.2 | 1369.4 | 1353.5 | 1337.9 | 1322.3
x1 = 0.2926 | 1255.56 | 1250.89 | 1246.22 | 1241.59 | 1347.3 | 1332.5 | 1317.8 | 1303.1 | 1288.7
x1 = 0.3807 | 1293.95 | 1289.25 | 1284.55 | 1279.89 | 1317 | 1303.1 | 1289.2 | 1275.6 | 1262.1
x1 = 0.5019 | 1335.52 | 1330.79 | 1326.08 | 1321.38 | 1287.5 | 1274.3 | 1261.2 | 1248.3 | 1235.4
x1 = 0.5925 | 1360.41 | 1355.69 | 1350.96 | 1346.26 | 1271 | 1258.2 | 1245.5 | 1232.9 | 1220.3
x1 = 0.6982 | 1384.58 | 1379.86 | 1375.14 | 1370.44 | 1255.8 | 1243.5 | 1231.1 | 1218.9 | 1206.6
x1 = 0.7862 | 1401.58 | 1396.85 | 1392.14 | 1387.44 | 1245.6 | 1233.5 | 1221.5 | 1209.5 | 1197.5
x1 = 0.8895 | 1418.59 | 1413.85 | 1409.13 | 1404.42 | 1236.2 | 1224.4 | 1212.7 | 1201.2 | 1189.5
x1 = 1 | 1433.72 | 1428.92 | 1424.13 | 1419.36 | 1227.9 | 1216.8 | 1205.8 | 1195 | 1184.2
